Source: patent publication US6863883B1, “Permanent wave agent composition having dyeing effect and method for dyeing hair using the same” (Henkel Lion Cosmetics Co. Ltd., priority 1998, dated 2005)

Tests used:
[1] = Stability with time of a second solution of a permanent waving composition containing a direct dye (storage at 45° C.); assay type: physicochemical; settings: for pH (45° C.) Initial / pH (45° C.) 2 weeks / pH (45° C.) 4 weeks: 0.2% dye in second solution; for pH (45° C.) 2 weeks / pH (45° C.) 4 weeks: stored at 45° C.; for Ratio of dye that remains solubilized after 4 weeks at 45° C.: absorbance at maximum wavelength, initial value defined as 100%
Text: Each of an acidic dye, tar-series pigment and cationic dye which are a direct dye was weighed out so as to be 0.2% by weight in terms of the active ingredient, and added to a second solution of a permanent waving composition formulated as shown in Table 1 to stir.
As the acidic dye. […] In the tar-series pigment, HC BLUE 2 and HC YELLOW 2 (manufactured by JAMS ROBINSON Inc.) were used. And, as the […] dye, (A): (1-methyl-1-paramethoxyphenyl)-2-(1-methane-4N-methylpyridinium)hydrazine chloride, (B): 4-dimethylaminophenylazo-2N— methyl-5N-methylimidazolium chloride and (C): 4-aminophenylazo-2N-methyl-5N-methylimidazo ium chloride (manufactured by Ciba Specialty Chemicals, Inc.) were used.
The sample was stored at 45° C., and stability of the sample with time was evaluated for solubility of the dye in the sample, pH, absorption spectra in a visible light range.
The evaluation for solubility of the dye was conducted based on the following criteria: • ◯: No change in solubility compared to that measured two weeks before; and • X: Precipitation of the dye
A pH was measured with a pH meter manufactured by HORIBA Inc. Limited. Moreover, the evaluation for the absorption spectra in the visible light range was conducted by measuring an absorbance at the maximum absorbance wavelength in the absorption spectra in the visible light range using HITACHI U-3210 (using a quartz cuvette having 10 mm optical path) and calculating a ratio of the dye that remains solubilized after 4 weeks by defining the initial measured solubilized value as 100%.

[2] = Dyeability test of second solution containing a dye on goat hair; set-up: key: ⊚: Deeply dyed and an original white color of the goat hair is not prominent; ◯: Dyed to a degree that an original white color of the goat hair is not prominent; Δ: Dyed, but prominent in an original white color of the goat hair; X: Only an original white color of the goat hair; settings: first solution 30° C. 15 minutes, then second solution with 0.2% dye
Experimental: To approximately 2 g of goat hair, approximately 2 g of a first solution of a permanent waving composition was applied, and the hair was allowed to stand in a constant temperature bath at 30° C. for 15 minutes. Then, approximately 2 g of the same filtered second solution of a permanent waving composition as that described in Test Example 1 was applied to the hair, and the hair was shampooed and treated with a hair rinse conditioner, and adequately rinsed with water. After drying the hair, dyeability for the hair was evaluated.
(§1) Thereafter, the hair which was dyed in the dyeability test was allowed to stand for 24 hours after dyeing, then immersed into 300 ml of an aqueous solution containing 0.03/sodium polyoxyethylene (2 E.O.) alkyl (12, 13) ether sulfate at 80° C. for 10 minutes. Then, the hair was adequately rinsed with warm water, dried, and fastness was evaluated by observing dyeability for the hair after the test. The evaluation was conducted based on the following criteria: • ⊚: Deeply dyed and an original white color of the goat hair is not prominent • ◯: Dyed to a degree that an original white color of the goat hair is not prominent • Δ: Dyed, but prominent in an original white color of the goat hair • X: Only an original white color of the goat hair.

[3] = Fastness test of dyed goat hair (surfactant solution at 80° C. for 10 minutes); set-up: key: ⊚: Deeply dyed and an original white color of the goat hair is not prominent; ◯: Dyed to a degree that an original white color of the goat hair is not prominent; Δ: Dyed, but prominent in an original white color of the goat hair; X: Only an original white color of the goat hair; settings: 24 hours after dyeing, surfactant solution 80° C. 10 minutes
Experimental: as §1

[4] = Effect of pH of cationic dye solution on dyeability (Test Example 5); set-up: species or system goat; settings: 0.05% aqueous solution, 30 minutes
Text: (§2) Thereafter, each 2 g of the first solution and the second solution not containing the dye was applied to the permanently waved hair under the same condition as that described above. After the treatment with the second solution, the hair was adequately washed with water, and 2 g of a 0.05/aqueous solution of the cationic dye (B) which had been adjusted to pH 9 was applied to the hair which had been permanently waved and the untreated hair, respectively, which were allowed to stand at a treatment temperature of 30° C. for a treatment period of 30 minutes. Then, the hair was shampooed and treated with a hair rinse conditioner, adequately rinsed with water and dried, and dyeability was evaluated. Dyeability was evaluated according to a brightness of JIS standard color chart. The smaller value thereof indicates higher dyeability.
A 0.05% aqueous solution of a cationic dye (C) was adjusted to pH 3, 5, 7, 9 or 11, and 4 g thereof was applied to approximately 2 g of goat hair. The, hair was allowed to stand in a constant temperature bath at 30° C. for 30 minutes. Then, the hair was shampooed and treated with a hair rinse conditioner, adequately washed with water and dried, and dyeability was evaluated according to the same manner as that described in Test Example 4.

[5] = Effect of water content (propylene glycol) on dyeability (Test Example 6); set-up: species or system goat; settings: 0.05% solution, pH 9
Text: as §2
0.05% aqueous solutions of a cationic dye (C), each containing 0, 10, 20, 30, 40 and 50% propylene glycol respectively, were adjusted to pH 9.4 g of each solution was applied to approximately 2 g of goat hair, and the goat hair was allowed to stand in a constant temperature bath at 30° C. for 30 minutes. Then, the hair was shampooed and treated with a hair rinse conditioner, and adequately washed with water and dyeability was evaluated according to the same manner as that described in Test Example 4.

Nc1c(N=Nc2ccc([N+](=O)[O-])cc2)c(S(=O)(=O)[O-])cc2cc(S(=O)(=O)[O-])c(N=Nc3ccccc3)c(O)c12.[Na+].[Na+] [BLACK 401]
pH (45° C.) Initial [1]: 6.43 | pH (45° C.) 2 weeks [1]: 6.44 | pH (45° C.) 4 weeks [1]: 6.45 | Dyeability [2]: ◯ | Fastness [3]: X

O=[N+]([O-])c1cc(N(CCO)CCO)ccc1NCCO [HC BLUE 2]
pH (45° C.) Initial [1]: 6.43 | pH (45° C.) 2 weeks [1]: 6.44 | pH (45° C.) 4 weeks [1]: 6.15 | Ratio of dye that remains solubilized after 4 weeks at 45° C. [1]: 0.00% | Dyeability [2]: ◯ | Fastness [3]: X

O=[N+]([O-])c1ccccc1NCCO [HC YELLOW 2]
pH (45° C.) Initial [1]: 6.43 | pH (45° C.) 2 weeks [1]: 6.42 | pH (45° C.) 4 weeks [1]: 6.44 | Ratio of dye that remains solubilized after 4 weeks at 45° C. [1]: 97.6% | Stability with time in the second solution of the permanent waving composition ([1]; summary of Table 2, 45° C.): stable with time | Dyeability [2]: ◯ | Fastness [3]: X

O=S(=O)([O-])c1ccc(N=Nc2c(O)ccc3ccccc23)cc1.[Na+] [ORANGE 205]
pH (45° C.) Initial [1]: 6.44 | pH (45° C.) 2 weeks [1]: 6.43 | pH (45° C.) 4 weeks [1]: 6.45 | Ratio of dye that remains solubilized after 4 weeks at 45° C. [1]: 98.7% | Dyeability [2]: Δ | Fastness [3]: X

Cc1ccc(Nc2ccc(O)c3c2C(=O)c2ccccc2C3=O)c(S(=O)(=O)[O-])c1.[Na+] [PURPLE 401]
pH (45° C.) Initial [1]: 6.54 | pH (45° C.) 2 weeks [1]: 6.52 | pH (45° C.) 4 weeks [1]: 6.54 | Ratio of dye that remains solubilized after 4 weeks at 45° C. [1]: 92.2% | Dyeability [2]: X | Fastness [3]: X

COc1ccc(N(C)N=Cc2cc[n+](C)cc2)cc1 [cationic dye (A), (1-methyl-1-paramethoxyphenyl)-2-(1-methane-4N-methylpyridinium)hydrazine chloride]
pH (45° C.) Initial [1]: 6.43 | pH (45° C.) 2 weeks [1]: 6.42 | pH (45° C.) 4 weeks [1]: 6.42 | Ratio of dye that remains solubilized after 4 weeks at 45° C. [1]: 99.6% | Dyeability [2]: ⊚ | Fastness [3]: ⊚

Cn1cc[n+](C)c1N=Nc1ccc(N)cc1 [cationic dye (C), 4-aminophenylazo-2N-methyl-5N-methylimidazo ium chloride]
pH (45° C.) Initial [1]: 6.41 | pH (45° C.) 2 weeks [1]: 6.40 | pH (45° C.) 4 weeks [1]: 6.41 | Ratio of dye that remains solubilized after 4 weeks at 45° C. [1]: 102.0% | Dyeability [2]: ⊚ | Fastness [3]: ⊚ | Dyeability (JIS brightness) ([4]; pH 3, 30° C.): 6.5 | Dyeability (JIS brightness) ([4]; pH 5, 30° C.): 6.0 | Dyeability (JIS brightness) ([4]; pH 7, 30° C.): 5.7 | Dyeability (JIS brightness) ([4]; pH 9, 30° C.): 5.3 | Dyeability (JIS brightness) ([4]; pH 11, 30° C.): 5.0 | Dyeability (JIS brightness) ([5]; propylene glycol 0 wt %): 6.5 | Dyeability (JIS brightness) ([5]; propylene glycol 10 wt %): 6.8 | Dyeability (JIS brightness) ([5]; propylene glycol 20 wt %): 7.0 | Dyeability (JIS brightness) ([5]; propylene glycol 30 wt %): 7.7 | Dyeability (JIS brightness) ([5]; propylene glycol 40 wt %): 8.5 | Dyeability (JIS brightness) ([5]; propylene glycol 50 wt %): 9.0
